Laboratory results from patent US20120035161A1, “Novel Compositions and Methods of Treating Diseases Using the Same” (CORRIDOR PHARMACEUTICALS, INC., priority 2006, published 2012).
Several values for one entry are separate records, joined by “and”; a condition that tells them apart may be missing. Identical values can stand only once.

Assays:
[1] = tested on: Aspergillus fumigatus-based mouse asthma model; assay: Aspergillus fumigatus-based mouse asthma model, lung resistance; assay type: in vivo; settings: 20 mg/ml, intraperitoneally
Method: Compounds of the invention were also tested for efficiacy in an asthma model.
A cohort of mice was administered intraperitoneal injections of Aspergillus fumigatus on days 0, 14, 26, 27, and 28. Lung resistance was tested on day 29 immediately following a tracheotomy/methacholine procedure. Animals receiving dexamethasone were administered dexamethasone on days 26, 27 and 28. Animals receiving a compound of the invention were administered the compound just hours before the lung resistance test. As a control, all test compounds, as well as dexamethasone, were also administered to mice in the absence of an A. fumigatus insult.

[2] = tested on: Serotonin (5-Hydroxytryptamine) 5-HT1, Non-Selective; assay: Assay 271000 radioligand binding, 5-HT1 non-selective; parameters: species or system Wistar Rat
Method: (§1) The methods employed in this study have been adapted from the scientific literature to maximize reliability and reproducibility. Reference standards were run as an integral part of each assay to ensure the validity of the results obtained. Assays were performed under conditions as described below. Where presented, IC50 values were determined by a non-linear, least squares regression analysis using the Data Analysis Toolbox (MDL Information Systems, San Leandro, Calif., USA). Where inhibition constants (Ki) are presented, the Ki values were calculated using the equation of Cheng and Prusoff (Cheng, Y., Prusoff, W. H., Biochem. Pharmacol. 22:3099-3108, 1973) using the observed IC50 of the tested compound, the concentration of radioligand employed in the assay, and historical values for the KD of the ligand. Where presented, the Hill coefficient (nu), defining the slope of the competitive binding curve, was calculated using the Data Analysis Toolbox.

[3] = target: T1, Serotonin (5-Hydroxytryptamine) 5-HT1A (Homo sapiens, UniProt P08908); assay: Radioligand binding, 5-HT1A ([3H] 8-OH-DPAT)
T1 construct: expressed in transfected cells; host or cells: CHO cells
T1 sequence (P08908 1-422): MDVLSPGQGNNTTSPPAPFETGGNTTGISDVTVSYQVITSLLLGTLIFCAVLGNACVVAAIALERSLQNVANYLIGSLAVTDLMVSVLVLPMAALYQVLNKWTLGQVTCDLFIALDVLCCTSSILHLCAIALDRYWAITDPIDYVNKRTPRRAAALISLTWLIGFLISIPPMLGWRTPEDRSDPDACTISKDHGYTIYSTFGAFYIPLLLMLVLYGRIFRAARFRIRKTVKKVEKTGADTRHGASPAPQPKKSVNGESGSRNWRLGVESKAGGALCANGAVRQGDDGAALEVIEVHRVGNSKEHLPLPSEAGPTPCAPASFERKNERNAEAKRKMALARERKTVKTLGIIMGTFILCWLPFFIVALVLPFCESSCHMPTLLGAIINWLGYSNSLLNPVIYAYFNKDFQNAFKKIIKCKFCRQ
Method: as §1

[4] = tested on: cryopreserved mixed gender human hepatocytes; assay: Hepatocyte stability assay; assay type: in vitro ADME; settings: 5 μM test compound
Method: Test compounds (5 μM) were incubated with cryopreserved mixed gender human hepatocytes pooled from at least 3 donors. Cell viability of hepatocytes was assessed by a Trypan Blue assay prior to the initiation of the stability assay. The final hepatocyte cell density was 1.5×10^6 viable cells/mL, Samples were taken at 2 time points: 0 and 60 minutes. As positive controls, testosterone (20 μM) and 7-hydroxy-coumarin (100 μM) were incubated and sampled at 5 time points: 0, 15, 30, 60, and 120 minutes. Aliquots were removed and combined (50/50) with acetonitrile to terminate the reaction. Samples were mixed for 10 minutes and centrifuged. The supernatants were transferred to vial for analysis by HRMS. In this assay, both test compound and a des-glycine metabolite (M1) are quantified based on peak area response ratios.
The enzymatic activities of the human cryopreserved hepatocytes used in this study were verified in parallel by determining the disappearance of testosterone (expressed as half-life) and the formation of 7-hydroxycoumarin glucuronide and 7-hydroxycoumarin sulfate (expressed as a formation rate).

[5] = Phospholipidosis assay (LipidTox); assay type: cell-based; settings: human
Method: (§2) More recently, fluorescent dyes have been utilized to assess phospholipidosis in a high throughput manner (Nioi et al., 2007, Toxicol. Sci. 99:162-173). In this assay, HepG2 cells are plated in MEM growth medium and allowed to incubate overnight. Cells are treated with test compounds that have been added to the assay medium (10% fetal bovine serum) containing LipidTox (fluorescent lipophilic dye). After 48 h incubation, cells are fixed and stained with Hoechst. Plates are scanned with an automated fluorescent microscope (Thermo Fisher Cellomics ArrayScan 4.5) and image analysis is used to quantitate cell number and phospholipid accumulation. Compounds are tested in triplicate at multiple concentrations. Three reference compounds, sertraline, perhexyline, and meclizine (high, medium, and low inducers of phospholipidosis, respectively) are included in each assay. The data is expressed as fold induction over background and the % of the positive control (sertraline), which is calculated using the following equation:
(§3) % positive control=100×(RFUcompound−RFUbackground)/(RFUsertaline−RFUbackground),
(§4) where RFU=Relative Fluorescence Unit

HepG2 cells = assay: Phospholipidosis assay (LipidTox); assay type: cell-based; settings: human, 48 h
Method: as §2, §3, §4

In the case of `NCC(=O)NCCN1CCN(CCCN2c3ccccc3Sc3ccc(C(F)(F)F)cc32)CC1` [ICI-735], the Lung resistance ([1]; A. fumigatus insult, day 29) is reported as 8.5 cm H2O/ml/s, the “decreasing lung resistance compared with dexamethasone” value [1] is reported as “at least as effective as dexamethasone” and the “% INHIBITION” value ([2]; 0.1 μM) is reported as 16%. For the same compound, the “% INHIBITION” value ([2]; 10 μM) was 63%, the inhibition at 0.1 µM ([3]; 0.1 μM) was 14% and the inhibition at 10 µM ([3]; 10 μM) was 89%. For the same compound, the “Relative Level (%)” value ([4]; T = 0 minutes) was 99.5% and 100.5%, the “Peak Areas” value ([4]; T = 60 minutes) was 8.39E+06 and 8.79E+06 and the “Relative Level (%)” value ([4]; T = 60 minutes) was 89.6% and 92.4%. For the same compound, the cytotoxicity at 48 h, 1 µM [5] was 0%, the cytotoxicity at 48 h, 3 µM [5] was 68% and the cytotoxicity at 48 h, 10 µM [5] was 100%. For the same compound, the cytotoxicity at 48 h, 30 µM [5] was 100%, the fold induction at 48 h, 1 µM [5] was 23 and the fold induction at 48 h, 3 µM [5] was 6. For the same compound, the “% Positive Control” value (HepG2 cells; 1 μM) was 43% and the “% Positive Control” value (HepG2 cells; 3 μM) was 10%.
